Target: T1, TRPM8 (Rattus norvegicus, UniProt Q8R455)
T1 construct: from tissue; host or cells: whole animal, female SD rats (in vivo)
Assay: Confirmation test of inhibitory effects on icilin-induced wet-dog shakes
Type: in vivo
Details: female SD rats, icilin 1 mg/kg i.p. 1 hour after dosing, shakes counted for 5 minutes
Text: Further, TRPM8 inhibitory activity can be evaluated by the efficacy inhibiting the wet-dog shake action which is induced by the administration of Icilin, TRPM8 agonist. Furthermore, an effect on overactive bladder (OAB) can be evaluated by an elongation of micturition interval against overactive bladder induced by acetic acid in accordance with a similar method described in J. Urol., 2001, 166, 1142.
Confirmation Test of Inhibitory Effects on Icilin-induced Wet-dog Shakes
Test compounds were dissolved in dimethylacetamide (wako), and 0.5% methylcellulose solution (wako) was added to make the solution or suspension containing 5% of dimethylacetatnide. At a dose of 0.3 to 10 mg/kg/5mL of test compounds were orally administered to female SD rats. After 1 hour, wet-dog shakes were induced by the intraperitoneal injection of icilin (1 mg/kg) which was dissolved in polyethylene glycol 400 (wako). From 5 minutes after the administration of icilin, wet-dog shakes were counted for 5 minutes. For control example, vehicle (a mixture of dimethylacetamide (wako): 0.5% methylcellulose (wako)=5:95) was administrated similarly, and the number of wet-dog shakes was counted in the same manner. A percent inhibition of wet-dog shakes by test compound was calculated from the following formula: [1-(test compound wet-dog shake count/vehicle wet-dog shake count)]×100.

T1 sequence (Q8R455 whole entry): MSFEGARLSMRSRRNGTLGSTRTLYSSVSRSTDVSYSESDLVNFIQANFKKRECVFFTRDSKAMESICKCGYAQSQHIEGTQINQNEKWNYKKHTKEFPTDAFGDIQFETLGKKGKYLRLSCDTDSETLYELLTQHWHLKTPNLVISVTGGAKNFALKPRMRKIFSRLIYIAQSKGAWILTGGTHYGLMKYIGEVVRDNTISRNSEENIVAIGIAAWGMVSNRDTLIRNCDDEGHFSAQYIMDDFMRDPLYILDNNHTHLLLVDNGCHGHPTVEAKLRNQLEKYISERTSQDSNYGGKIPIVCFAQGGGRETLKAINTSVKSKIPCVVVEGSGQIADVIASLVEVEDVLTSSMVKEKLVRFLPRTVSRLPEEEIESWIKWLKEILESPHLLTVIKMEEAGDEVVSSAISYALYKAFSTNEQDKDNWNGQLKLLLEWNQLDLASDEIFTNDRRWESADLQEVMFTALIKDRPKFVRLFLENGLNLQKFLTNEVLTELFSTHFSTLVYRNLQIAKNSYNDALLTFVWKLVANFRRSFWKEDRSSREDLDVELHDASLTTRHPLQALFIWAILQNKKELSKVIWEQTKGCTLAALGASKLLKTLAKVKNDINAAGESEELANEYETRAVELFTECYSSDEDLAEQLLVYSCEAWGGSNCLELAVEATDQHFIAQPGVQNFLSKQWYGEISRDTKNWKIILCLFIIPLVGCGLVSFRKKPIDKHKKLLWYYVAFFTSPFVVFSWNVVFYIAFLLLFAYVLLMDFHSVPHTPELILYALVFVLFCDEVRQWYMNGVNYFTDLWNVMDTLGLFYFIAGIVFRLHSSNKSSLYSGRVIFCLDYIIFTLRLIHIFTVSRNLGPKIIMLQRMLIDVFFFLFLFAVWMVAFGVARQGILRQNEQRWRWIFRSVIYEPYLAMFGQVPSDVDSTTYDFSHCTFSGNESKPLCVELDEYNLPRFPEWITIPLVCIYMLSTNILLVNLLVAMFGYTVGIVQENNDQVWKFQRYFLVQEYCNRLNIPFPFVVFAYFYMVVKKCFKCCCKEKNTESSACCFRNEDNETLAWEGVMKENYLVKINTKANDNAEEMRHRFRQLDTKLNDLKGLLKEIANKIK

Row | SMILES | % inhibition of Wet-Dog Shake (oral dose 3 mg/kg) [%] | further results
1 | O=C(N[C@@H](Cc1ccccn1)[C@H](F)CO)c1cccc(F)c1-c1cc(-c2ccc(F)cc2)[nH]n1 [Example 43-25] | 100 | –
2 | O=C(N[C@@H](CO)Cc1ccccc1)c1cccc(F)c1-c1cc(-c2ccccc2)[nH]n1 [Example 1-68] | 41 | –
3 | O=C(N[C@H](Cc1ccccn1)[C@H](F)CO)c1cccc(F)c1-c1cc(-c2ccc(F)cc2)[nH]n1 [Example 43-24] | – | % inhibition of Wet-Dog Shake (oral dose 1 mg/kg): 100%
4 | O=C(N[C@@H](CO)Cc1ccccn1)c1ccccc1-c1n[nH]c(-c2ccc(F)cc2)c1F [Example 1-97] | – | % inhibition of Wet-Dog Shake (oral dose 1 mg/kg): 50%
5 | C[C@H](O)C[C@H](NC(=O)c1cccc(F)c1-c1cc(-c2ccc(F)cc2)[nH]n1)C(O)c1ccccn1 (stereo partly shown) [Example 54-4] | 50 | –
6 | O=C(N[C@H](Cc1ncccn1)[C@H](F)CO)c1cccc(F)c1-c1cc(-c2ccc(F)cc2)[nH]n1 [Example 43-29] | – | % inhibition of Wet-Dog Shake (oral dose 1 mg/kg): 79%
7 | O=C1OC[C@H]([C@@H](Cc2ccccn2)NC(=O)c2cccc(F)c2-c2cc(-c3ccc(F)cc3)[nH]n2)O1 [Example 47-2] | 78 | –
8 | NC(=O)C[C@@H](Cc1ccccc1)NC(=O)c1ccccc1-c1cc(-c2ccc(F)cc2)[nH]n1 [Example 1-77] | – | % inhibition of Wet-Dog Shake (oral dose 10 mg/kg): 59%
9 | O=C(N[C@H](Cc1ccccn1)C(F)(F)CO)c1cccc(F)c1-c1cc(-c2ccc(F)cc2)[nH]n1 [Example 50-5] | – | % inhibition of Wet-Dog Shake (oral dose 1 mg/kg): 100%
10 | O=C(NCC(O)c1ccccn1)c1cccc(F)c1-c1cc(-c2ccc(F)cc2)[nH]n1 (stereo not shown) [Example 1-194] | 60 | –
11 | NC(=O)C[C@@H](Cc1ccccc1)NC(=O)c1cccc(F)c1-c1cc(-c2ccc(F)cc2)[nH]n1 [Example 1-128] | – | % inhibition of Wet-Dog Shake (oral dose 10 mg/kg): 59%
12 | O=C(N[C@@H](CO)Cc1ncccc1Cl)c1cccc(F)c1-c1cc(-c2ccc(F)cc2)[nH]n1 [Example 39-2] | 50 | –
13 | CC(CO)[C@@H](Cc1ccccn1)NC(=O)c1cccc(F)c1-c1cc(-c2ccc(Cl)cc2)[nH]n1 (stereo partly shown) [Example 1-162] | 48 | –
14 | CO[C@H](CO)[C@@H](Cc1ccccn1)NC(=O)c1cccc(F)c1-c1cc(-c2ccc(F)cc2F)[nH]n1 [Example 43-34] | 100 | –
15 | CO[C@H](CO)[C@@H](Cc1ccccn1)NC(=O)c1ccccc1-c1n[nH]c(-c2ccc(F)cc2)c1F [Example 43-5] | – | % inhibition of Wet-Dog Shake (oral dose 0.3 mg/kg): 98%
16 | CCOC(c1ccccn1)[C@H](CO)NC(=O)c1cccc(F)c1-c1cc(-c2ccc(F)cc2)[nH]n1 (stereo partly shown) [Example 43-22] | 98 | –
17 | NC[C@@H](Cc1ccccn1)NC(=O)c1ccccc1-c1cc(-c2ccc(F)c(F)c2)[nH]n1 [Example 16-11] | – | % inhibition of Wet-Dog Shake (oral dose 10 mg/kg): 51%
18 | O=C(N[C@@H](CO)Cc1ccccn1)c1cccc(F)c1-c1cc(-c2ccccc2)[nH]n1 [Example 1-69] | – | % inhibition of Wet-Dog Shake (oral dose 10 mg/kg): 93%
19 | O=C(NCCc1ccccn1)c1ccccc1-c1cc(-c2ccccc2)[nH]n1 [Example 1-3] | – | % inhibition of Wet-Dog Shake (oral dose 10 mg/kg): 66%
20 | O=C(N[C@@H](CCO)Cc1ccccn1)c1cccc(F)c1-c1n[nH]c(-c2ccc(F)cc2)c1F [Example 28-1, 3-Fluoro-2-[4-fluoro-5-(4-fluorophenyl)-1H-pyrazol-3-yl]-N-[(2R)-4-hydroxy-1-(pyridin-2-yl)butan-2-yl]benzamide] | – | % inhibition of Wet-Dog Shake (oral dose 1 mg/kg): 62%
21 | O=C1N[C@@H]([C@@H](Cc2ccccn2)NC(=O)c2cccc(F)c2-c2cc(-c3ccc(F)cc3)[nH]n2)CO1 [Example 47-1, 3-Fluoro-2-[5-(4-fluorophenyl)-1H-pyrazol-3-yl]-N-[(1R)-1-((4S)-2-oxo-1,3-oxazolidin-4-yl)-2-(pyridin-2-yl)ethyl]benzamide] | 48 | –
22 | O=C(N[C@H](Cc1ccccn1)C(CO)CO)c1cccc(F)c1-c1cc(-c2ccc(F)cc2)[nH]n1 [Example 35-3] | 69 | –

Row | SMILES | % inhibition of Wet-Dog Shake (oral dose 3 mg/kg) [%] | further results
23 | O=C(N[C@@H](CCO)Cc1ccccn1)c1cccc(OC(F)(F)F)c1-c1cc(-c2ccc(F)cc2)[nH]n1 [Example 1-134] | 49 | –
24 | O=C(N[C@H](Cc1ccccn1)[C@H](O)CO)c1cccc(F)c1-c1n[nH]c(-c2ccc(F)cc2)c1F [Example 1-156] | 99 | –
25 | O=C(N[C@@H](CCO)Cc1ccccn1)c1cccc(F)c1-c1n[nH]c(-c2ccc(Cl)cc2)c1F [Example 1-154] | 75 | –
26 | CO[C@H](CO)[C@@H](Cc1ncccn1)NC(=O)c1cccc(F)c1-c1cc(-c2ccc(Cl)cc2)[nH]n1 [Example 1-242] | – | % inhibition of Wet-Dog Shake (oral dose 1 mg/kg): 73%
27 | C[C@](CCO)(Cc1ccccn1)NC(=O)c1cccc(F)c1-c1cc(-c2ccc(F)cc2)[nH]n1 [Example 24-4] | 31 | –
28 | CC(c1ccccn1)[C@H](CCO)NC(=O)c1cccc(F)c1-c1cc(-c2ccc(F)cc2)[nH]n1 (stereo partly shown) [Example 1-138] | 100 | –
29 | CO[C@H](CO)[C@@H](Cc1nccs1)NC(=O)c1cccc(F)c1-c1cc(-c2ccc(F)cc2)[nH]n1 [Example 27-19] | – | % inhibition of Wet-Dog Shake (oral dose 1 mg/kg): 80%
30 | C[C@](O)(CO)[C@@H](Cc1ccccn1)NC(=O)c1cccc(F)c1-c1cc(-c2ccc(Cl)cc2)[nH]n1 [Example 1-219] | 45 | –
31 | CC(O)(c1ccccn1)[C@H](CO)NC(=O)c1cccc(F)c1-c1cc(-c2ccc(F)cc2)[nH]n1 (stereo partly shown) [Example 1-241] | 100 | –
32 | CO[C@H](CO)[C@@H](Cn1cc(Cl)cn1)NC(=O)c1cccc(F)c1-c1cc(-c2ccc(F)cc2)[nH]n1 [Example 27-29] | 47 | –
33 | O=C(N[C@H](Cn1cccn1)[C@H](O)CF)c1cccc(F)c1-c1cc(-c2ccc(F)cc2)[nH]n1 [Example 1-245] | – | % inhibition of Wet-Dog Shake (oral dose 1 mg/kg): 55%
34 | Cc1cccnc1C[C@H](CCO)NC(=O)c1cccc(F)c1-c1cc(-c2ccc(F)cc2)[nH]n1 [Example 1-117] | 46 | –
35 | O=C(NC(CCO)Cc1ccccn1)c1cccc(F)c1-c1cc(-c2ccc(F)cc2)[nH]n1 (stereo not shown) [Example 26-1, 3-Fluoro-2-[5-(4-fluorophenyl)-1H-pyrazol-3-yl]-N-[4-hydroxy-1-(pyridin-2-yl)butan-2-yl]benzamide] | 89 | –
36 | O=C(N[C@H](Cn1cccn1)[C@H](F)CO)c1cccc(Cl)c1-c1cc(-c2ccc(F)cc2)[nH]n1 [Example 43-45] | 40 | –
37 | O=C(N[C@@H](CCO)Cc1ccccn1)c1cccc(F)c1-c1cc(-c2ccc(Cl)cc2)[nH]n1 [Example 1-131] | 94 | –
38 | CO[C@@H](CO)[C@@H](Cc1ccccn1)NC(=O)c1cccc(F)c1-c1cc(-c2ccc(F)cc2)[nH]n1 [Example 43-2] | 100 | –
39 | CO[C@H](CO)[C@@H](Cc1ccccn1)NC(=O)c1ccccc1-c1n[nH]c(-c2ccc(Cl)cc2)c1F [Example 43-18] | – | % inhibition of Wet-Dog Shake (oral dose 1 mg/kg): 85%
40 | O=C(N[C@@H](CO)C(O)c1ccccn1)c1cccc(F)c1-c1cc(-c2ccc(F)cc2)[nH]n1 (single isomer, unassigned) [Example 54-2] | 48 | –
41 | COC(c1ccccn1)[C@H](CO)NC(=O)c1cccc(F)c1-c1n[nH]c(-c2ccc(F)cc2)c1F (stereo partly shown) [Example 43-16] | 97 | –
42 | COC[C@@H](O)[C@@H](Cc1ccccn1)NC(=O)c1cccc(F)c1-c1n[nH]c(-c2ccc(F)cc2)c1F [Example 1-213] | – | % inhibition of Wet-Dog Shake (oral dose 1 mg/kg): 68%
43 | O=C(N[C@@H](CCO)C(O)c1ccccn1)c1cccc(F)c1-c1cc(-c2ccc(F)cc2)[nH]n1 (stereo partly shown) [Example 54-3] | 62 | –
